This note sets out measurements from patent US11998600B2, “Enhancing the therapeutic activity of an immune checkpoint inhibitor” (MaineHealth, priority 2015, dated 2024).

For one assay, the system named is chick embryos. Briefly: Circulating Mab XL313 reactive epitope in chick embryo serum, solid-phase ELISA. It is filed as in vivo. As to conditions: serum collected three days after FGF-2 stimulation, FIG. 5A. The protocol: Due to the differential expression and bio-distribution of the RGDKGE (SEQ ID NO. 1) epitope in angiogenic CAM tissues and its expression in macrophage-conditioned medium, it was determined whether a soluble circulating form of this RGDKGE (SEQ ID NO. 1) epitope could be generated. To examine this possibility, chick embryos were either un-treated or stimulated with FGF-2 and serum, and collected three days later. […] In contrast, a (P<0.05) 2-fold increase was detected in the levels of circulating XL313 epitope following FGF-2 stimulation. These findings indicated the differential release of a soluble form of this RGDKGE (SEQ ID NO. 1) containing collagen epitope.

The subject of assay [1] is chick chorioallantoic membrane (CAM). Briefly: Chick CAM inflammation assay, FGF-2 induced, antibody treatment. It is filed as in vivo. As to conditions: FGF-2 stimulation in the absence of cortisone acetate; FIG. 3E. The protocol:
The chick chorioallantoic membrane (CAM) assays were carried out with some modifications (19). For all experiments CAMs of 10-day-old chick embryos obtained from Charles River (North Franklin, CT) were separated from the shell membrane. Filter discs either non-treated (inflammation assays) pretreated (angiogenesis assays) with cortisone acetate (3.0 mg/ml) containing RPMI only or FGF-2 (40 ng). CAMs were either non-treated or treated topically with Mab XL313, XL166 or a non-specific control antibody (10 μg/embryo every 24 h for three consecutive treatments). […] At the end of the incubation period the embryos were sacrificed and the CAM tissues were analyzed. Angiogenesis was quantified by counting the number of angiogenic branching blood vessels within the area of the filter disc. The angiogenic index was determined by subtracting the mean number of blood vessel branch points from untreated CAMs from each experimental condition. […]
The chick CAM has been routinely used to assess inflammation and granulation tissue formation, which are largely dependent on infiltration of chick heterophils (the avian equivalent of neutrophils), macrophages and activated fibroblasts (36,37). To study the potential differential biological impact of RGD epitopes, FGF-2 induced inflammation was examined by carrying out similar experiments in the absence of cortisone acetate and quantifying CAM thickening. […]

Assay [2] shares this test system. The assay can be described thus: Chick CAM inflammation assay, induction by RGD collagen peptides. It is filed as in vivo. The conditions noted are these: FGF-2, absence of cortisone acetate; FIG. 5D. How it is done:
The chick chorioallantoic membrane (CAM) assays were carried out with some modifications (19). For all experiments CAMs of 10-day-old chick embryos obtained from Charles River (North Franklin, CT) were separated from the shell membrane. Filter discs either non-treated (inflammation assays) pretreated (angiogenesis assays) with cortisone acetate (3.0 mg/ml) containing RPMI only or FGF-2 (40 ng). CAMs were either non-treated or treated topically with Mab XL313, XL166 or a non-specific control antibody (10 μg/embryo every 24 h for three consecutive treatments). […] At the end of the incubation period the embryos were sacrificed and the CAM tissues were analyzed. Angiogenesis was quantified by counting the number of angiogenic branching blood vessels within the area of the filter disc. The angiogenic index was determined by subtracting the mean number of blood vessel branch points from untreated CAMs from each experimental condition. Eight to twelve embryos were used per condition and experiments were repeated at least three times.
The effects of the soluble RGD containing collagen peptides on inflammation were examined.

For assay [3] the test system is unchanged. Briefly: Macrophage infiltration of FGF-2 stimulated CAMs (KUL1 staining). It is filed as in vivo. The conditions noted are these: FGF-2 stimulation, no cortisone acetate; FIG. 3D. How it is done:
The chick chorioallantoic membrane (CAM) assays were carried out with some modifications (19). For all experiments CAMs of 10-day-old chick embryos obtained from Charles River (North Franklin, CT) were separated from the shell membrane. Filter discs either non-treated (inflammation assays) pretreated (angiogenesis assays) with cortisone acetate (3.0 mg/ml) containing RPMI only or FGF-2 (40 ng). CAMs were either non-treated or treated topically with Mab XL313, XL166 or a non-specific control antibody (10 μg/embryo every 24 h for three consecutive treatments). For peptide induction experiments, CAMs were stimulated with 100 ng/ml of the RGD peptides (P-1, P-2, P-C) in the presence or absence of the P38MAPK inhibitor, SB202190 (10 μM). At the end of the incubation period the embryos were sacrificed and the CAM tissues were analyzed. Angiogenesis was quantified by counting the number of angiogenic branching blood vessels within the area of the filter disc. The angiogenic index was determined by subtracting the mean number of blood vessel branch points from untreated CAMs from each experimental condition. […]
CAMs examined for accumulation of granulation tissue were harvested, fixed in 4% PFA and paraffin embedded and sectioned (4 μm) and stained with Giemsa. CAM tissues analyzed via immunofluorescence were harvested, embedded with OCT, snap frozen and sectioned (4 μM). […]

In the next assay the test system is PDL-1. The assay can be described thus: PDL-1 Western blot, M21 melanoma cells attached to αvβ3 ligands. As to conditions: immobilized epitope vs uncoated wells; 15 minute incubation; FIG. 15. It is filed as cell-based, human. The protocol: FIGS. 14A and 14B are blots of integrin αvβ3 expressing melanoma cells (M21 and CLL-49) and FIG. 14C is a blot depicting that endothelial cells (HUVEC) were allowed to attach to well coated with either a non-αvβ3 binding ligand (native collagen-IV) or an αvβ3 binding ligand (denatured collagen-IV). Whole cell lysates were prepared and the relative levels of PDL-1 or loading control β-actin were assessed by Western blot.
Integrin αvβ3 expressing melanoma cells (M21) were seeded on control uncoated wells or wells immobilized with the XL313 cryptic collagen epitope (RGDKGE (SEQ ID NO. 1)). Following a 15 minute incubation cell lysates were prepared. The relative levels of PDL-1 or loading control β-actin were assessed by Western blot.
Integrin αvβ3 expressing melanoma cells M21 (FIG. 14A) and CCL-49 (FIG. 14B) and endothelial cells (HUVEC) (FIG. 14C) were attached to wells coated with either a non-αvβ3 binding ligand (native collagen-IV) or an αvβ3 binding ligand (denatured collagen-IV). Whole cell lysates were prepared and the relative levels of PDL-1 or β-actin loading control were assessed.
Integrin αvβ3 expressing melanoma cells (M21) were seeded onto control uncoated wells or wells immobilized with the XL313 cryptic collagen epitope (RGDKGE (SEQ ID NO. 1)) (FIG. 15). Following an incubation period, cell lysates were prepared and relative levels of PDL-1 were assessed.

As for “FGF-2: Fibroblast growth factor-2 from R&D Systems, stimulus of CAM angiogenesis and inflammation”, the “increase in levels of circulating XL313 epitope in serum” value in the assay with chick embryos was 2 fold. For the same substance, in assay [1], the “CAMs showing robust formation of thick granulation tissue” value is recorded as “approximately 50%”. Also, the “CAMs exhibiting extensive tissue thickening” value in assay [2] was 55%-60%. Moreover, the “macrophage infiltration of the CAMs, enhancement as compared to control” value in assay [3] is on record as “over 2 fold”.

Regarding “RGDKGE (immobilized on wells) [XL313 epitope, αvβ3 ligand]”, in the assay on PDL-1, the “levels of PDL-1 protein in M21 melanoma cells on immobilized epitope” value is reported as “enhanced levels of PDL-1 protein”.
